# Biological target: T1, Kv1.3 potassium channel (Homo sapiens, UniProt P22001)
# T1 construct: expressed in transfected cells
# Assay: Kv1.3 potassium channel blocker activity, automated whole-cell patch clamp (Patchliner) in CHO-K1 cells stably expressing Kv1.3
# Type: cell-based
# Conditions: 30 nM-100 μM
# Description: This assay is used to evaluate the disclosed compounds' activities as Kv1.3 potassium channel blockers.
# CHO-K1 cells stably expressing Kv1.3 were grown in DMEM containing 10% heat-inactivated FBS, 1 mM sodium pyruvate, 2 mM L-glutamine, and G418 (500 μg/ml). Cells were grown in culture flasks at 37° C. in a 5% CO2-humidified incubator.
# The cells were bathed in an extracellular solution containing 140 mM NaCl, 4 mM KCl, 2 mM CaCl2), 1 mM MgCl2, 5 mM glucose, 10 mM HEPES; pH adjusted to 7.4 with NaOH; 295-305 mOsm. The internal solution contained 50 mM KCl, 10 mM NaCl, 60 mM KF, 20 mM EGTA, 10 mM HEPES; pH adjusted to 7.2 with KOH; 285 mOsm. All compounds were dissolved in DMSO at 30 mM. Compound stock solutions were freshly diluted with external solution to concentrations of 30 nM, 100 nM, 300 nM, 1 μM, 3 μM, 10 μM, 30 μM and 100 μM. The highest content of DMSO (0.3%) was present in 100 μM.
# The currents were evoked by applying 100 ms depolarizing pulses from −90 mV (holding potential) to +40 mV were applied with 0.1 Hz frequency. Control (compound-free) and compound pulse trains for each compound concentration applied contained 20 pulses. 10-second breaks were used between pulse trains (see Table A below).
# Whole-cell current recordings and compound application were enabled by means of an automated patch clamp platform Patchliner (Nanion Technologies GmbH). EPC 10 patch clamp amplifier (HEKA Elektronik Dr. Schulze GmbH) along with Patchmaster software (HEKA Elektronik Dr. Schulze GmbH) was used for data acquisition. Data were sampled at 10 kHz without filtering. Passive leak currents were subtracted online using a P/4 procedure (HEKA Elektronik Dr. Schulze GmbH). Increasing compound concentrations were applied consecutively to the same cell without washouts in between. Total compound incubation time before the next pulse train was not longer than 10 seconds. Peak current inhibition was observed during compound equilibration.
# AUC and peak values were obtained with Patchmaster (HEKA Elektronik Dr. Schulze GmbH). To determine IC50, the last single pulse in the pulse train corresponding to a given compound concentration was used. Obtained AUC and peak values in the presence of compound were normalized to control values in the absence of compound. Using Origin (OridinLab), IC50 was derived from data fit to Hill equation: Icompound/Icontrol=(100−A)/(1+([compound]/IC50)nH)+A, where IC50 value is the concentration at which current inhibition is half-maximal, [compound] is the applied compound concentration, A is the fraction of current that is not blocked and nH is the Hill coefficient.
# T1 sequence (P22001 whole entry): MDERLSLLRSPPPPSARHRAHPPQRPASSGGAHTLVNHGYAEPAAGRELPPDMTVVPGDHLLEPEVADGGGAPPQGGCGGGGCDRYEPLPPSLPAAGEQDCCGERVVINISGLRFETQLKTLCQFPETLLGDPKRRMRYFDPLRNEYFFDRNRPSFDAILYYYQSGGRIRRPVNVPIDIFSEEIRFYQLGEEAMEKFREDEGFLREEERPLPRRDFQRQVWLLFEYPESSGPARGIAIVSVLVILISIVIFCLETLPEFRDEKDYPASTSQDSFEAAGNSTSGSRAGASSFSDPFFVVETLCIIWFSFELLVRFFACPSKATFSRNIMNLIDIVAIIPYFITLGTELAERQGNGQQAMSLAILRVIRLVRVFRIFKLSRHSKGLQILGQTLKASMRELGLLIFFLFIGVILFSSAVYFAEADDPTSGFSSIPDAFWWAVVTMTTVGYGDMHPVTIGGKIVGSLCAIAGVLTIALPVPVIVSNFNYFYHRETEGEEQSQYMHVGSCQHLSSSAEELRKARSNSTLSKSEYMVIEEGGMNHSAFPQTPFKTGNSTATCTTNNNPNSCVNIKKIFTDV
row,IC50,SMILES
1,< 3 µM,"O=C(C[C@H](O)CO)N1CC[C@]2(C1)C(=O)Nc1cc(Cl)c(Cl)cc12 [Compound 76, (S)-5,6-dichloro-1′-((S)-3,4-dihydroxybutanoyl)spiro[indoline-3,3′-pyrrolidin]-2-one]"
2,< 10 µM,"O=C(C[C@@H](O)CO)N1CC[C@]2(C1)C(=O)Nc1cc(Cl)c(Cl)cc12 [Compound 77, (S)-5,6-dichloro-1′-((R)-3,4-dihydroxybutanoyl)spiro[indoline-3,3′-pyrrolidin]-2-one]"
3,< 10 µM,"O=C(c1cnn(CCO)c1)N1CC[C@]2(C1)C(=O)Nc1cc(Cl)c(Cl)cc12 [Compound 78, (S)-5,6-dichloro-1′-(1-(2-hydroxyethyl)-1H-pyrazole-4-carbonyl)spiro[indoline-3,3′-pyrrolidin]-2-one]"
4,< 3 µM,"O=C(c1cc(CO)[nH]n1)N1CC[C@]2(C1)C(=O)Nc1cc(Cl)c(Cl)cc12 [Compound 79, (S)-5,6-dichloro-1′-(5-(hydroxymethyl)-1H-pyrazole-3-carbonyl)spiro[indoline-3,3′-pyrrolidin]-2-one]"
5,< 1 µM,"O=C(c1cn[nH]c1CO)N1CC[C@]2(C1)C(=O)Nc1cc(Cl)c(Cl)cc12 [Compound 80, (S)-5,6-dichloro-1′-(5-(hydroxymethyl)-1H-pyrazole-4-carbonyl)spiro[indoline-3,3′-pyrrolidin]-2-one]"
6,< 3 µM,"CN1CC(C(=O)N2CC[C@]3(C2)C(=O)Nc2cc(Cl)c(Cl)cc23)CC1=O (stereo partly drawn) [Compound 81, (3S)-5,6-dichloro-1′-(1-methyl-5-oxopyrrolidine-3-carbonyl)spiro[indoline-3,3′-pyrrolidin]-2-one]"
7,< 3 µM,"Cn1ccc(C(=O)N2CC[C@]3(C2)C(=O)Nc2cc(Cl)c(Cl)cc23)cc1=O [Compound 82, (S)-5,6-dichloro-1′-(1-methyl-2-oxo-1,2-dihydropyridine-4-carbonyl)spiro[indoline-3,3′-pyrrolidin]-2-one]"
8,< 10 µM,"Cn1cc(C(=O)N2CC[C@]3(C2)C(=O)Nc2cc(Cl)c(Cl)cc23)ccc1=O [Compound 83, (S)-5,6-dichloro-1′-(1-methyl-6-oxo-1,6-dihydropyridine-3-carbonyl)spiro[indoline-3,3′-pyrrolidin]-2-one]"
9,< 1 µM,"Nc1ccc(C(=O)N2CC[C@]3(C2)C(=O)Nc2cc(Cl)c(Cl)cc23)cn1 [Compound 84, (S)-1′-(6-aminonicotinoyl)-5,6-dichlorospiro[indoline-3,3′-pyrrolidin]-2-one]"
10,< 10 µM,"O=C(N1CC[C@]2(C1)C(=O)Nc1cc(Cl)c(Cl)cc12)C1(O)CC1 [Compound 85, (S)-5,6-dichloro-1′-(1-hydroxycyclopropane-1-carbonyl)spiro[indoline-3,3′-pyrrolidin]-2-one]"
11,< 3 µM,"CC(C)(O)C(=O)N1CC[C@]2(C1)C(=O)Nc1cc(Cl)c(Cl)cc12 [Compound 86, (S)-5,6-dichloro-1′-(2-hydroxy-2-methylpropanoyl)spiro[indoline-3,3′-pyrrolidin]-2-one]"
12,< 10 µM,"CC(C)(O)CC(=O)N1CC[C@]2(C1)C(=O)Nc1cc(Cl)c(Cl)cc12 [Compound 87, (S)-5,6-dichloro-1′-(3-hydroxy-3-methylbutanoyl)spiro[indoline-3,3′-pyrrolidin]-2-one]"
13,< 3 µM,"C[C@H](O)CC(=O)N1CC[C@]2(C1)C(=O)Nc1cc(Cl)c(Cl)cc12 [Compound 88, (S)-5,6-dichloro-1′-((S)-3-hydroxybutanoyl)spiro[indoline-3,3′-pyrrolidin]-2-one]"
14,< 3 µM,"C[C@@H](O)CC(=O)N1CC[C@]2(C1)C(=O)Nc1cc(Cl)c(Cl)cc12 [Compound 89, (S)-5,6-dichloro-1′-((R)-3-hydroxybutanoyl)spiro[indoline-3,3′-pyrrolidin]-2-one]"
15,< 10 µM,"O=C(CC1(O)CCC1)N1CC[C@]2(C1)C(=O)Nc1cc(Cl)c(Cl)cc12 [Compound 90, (S)-5,6-dichloro-1′-(2-(1-hydroxycyclobutyl)acetyl)spiro[indoline-3,3′-pyrrolidin]-2-one]"
16,< 3 µM,"CC[C@H](O)C(=O)N1CC[C@]2(C1)C(=O)Nc1cc(Cl)c(Cl)cc12 [Compound 91, (S)-5,6-dichloro-1′-((S)-2-hydroxybutanoyl)spiro[indoline-3,3′-pyrrolidin]-2-one]"
17,< 10 µM,"CC[C@@H](O)C(=O)N1CC[C@]2(C1)C(=O)Nc1cc(Cl)c(Cl)cc12 [Compound 92, (S)-5,6-dichloro-1′-((R)-2-hydroxybutanoyl)spiro[indoline-3,3′-pyrrolidin]-2-one]"

row,IC50,SMILES
1,< 1 µM,"COC[C@@H]1C[C@@H](C(=O)N2CC[C@]3(C2)C(=O)Nc2cc(Cl)c(Cl)cc23)CN1 [Compound 110, (3S)-5,6-dichloro-1′-[(3R,5S)-5-(methoxymethyl)pyrrolidine-3-carbonyl]-1H-spiro[indole-3,3′-pyrrolidin]-2-one]"
2,< 1 µM,"COC[C@H]1C[C@@H](C(=O)N2CC[C@]3(C2)C(=O)Nc2cc(Cl)c(Cl)cc23)CN1 [Compound 111, (S)-5,6-dichloro-1′-((3R,5R)-5-(methoxymethyl)pyrrolidine-3-carbonyl)spiro[indoline-3,3′-pyrrolidin]-2-one]"
3,< 10 µM,"O=C(CO)N1CC[C@@]2(C1)C(=O)Nc1cc(Cl)c(Br)cc12 [Compound 117, (R)-5-bromo-6-chloro-1′-(2-hydroxyacetyl)spiro[indoline-3,3′-pyrrolidin]-2-one]"
4,< 1 µM,"O=C(CO)N1CC[C@]2(C1)C(=O)Nc1cc(Cl)c(Br)cc12 [Compound 118, (S)-5-bromo-6-chloro-1′-(2-hydroxyacetyl)spiro[indoline-3,3′-pyrrolidin]-2-one]"
5,< 10 µM,"Cc1cc2c(cc1Cl)[C@@]1(CCN(C(=O)CO)C1)C(=O)N2 [Compound 119, (R)-5-chloro-1′-(2-hydroxyacetyl)-6-methylspiro[indoline-3,3′-pyrrolidin]-2-one]"
6,< 3 µM,"O=C(CO)N1CC[C@@]2(C1)C(=O)Nc1c2cc(Cl)c(Cl)c1Cl [Compound 122, (3R)-5,6,7-trichloro-1′-(2-hydroxyacetyl)-1H-spiro[indole-3,3′-pyrrolidin]-2-one]"
7,< 1 µM,"Cc1c(Cl)cc2c(c1F)NC(=O)[C@@]21CCN(C(=O)CO)C1 [Compound 127, (S)-5-chloro-7-fluoro-1′-(2-hydroxyacetyl)-6-methylspiro[indoline-3,3′-pyrrolidin]-2-one]"
8,< 3 µM,"Nc1nnc(N2CC[C@]3(C2)C(=O)Nc2cc(Cl)c(Cl)cc23)o1 [Compound 132, (S)-1′-(5-amino-1,3,4-oxadiazol-2-yl)-5,6-dichlorospiro[indoline-3,3′-pyrrolidin]-2-one]"
9,< 1 µM,"O=C(c1cc[nH]c1)N1CC[C@]2(C1)C(=O)Nc1cc(Cl)c(Cl)cc12 [Compound 135, (S)-5,6-dichloro-1′-(1H-pyrrole-3-carbonyl)spiro[indoline-3,3′-pyrrolidin]-2-one]"
10,< 1 µM,"O=C(c1nnc[nH]1)N1CC[C@]2(C1)C(=O)Nc1cc(Cl)c(Cl)cc12 [Compound 136, (S)-5,6-dichloro-1′-(1H-1,2,4-triazole-3-carbonyl)spiro[indoline-3,3′-pyrrolidin]-2-one]"
11,< 1 µM,"O=C(c1cn[nH]n1)N1CC[C@]2(C1)C(=O)Nc1cc(Cl)c(Cl)cc12 [Compound 137, (S)-5,6-dichloro-1′-(1H-1,2,3-triazole-4-carbonyl)spiro[indoline-3,3′-pyrrolidin]-2-one]"
12,< 1 µM,"O=C1Nc2cc(Cl)c(Cl)cc2[C@]12CCN(S(=O)(=O)CCO)C2 [Compound 138, (3S)-5,6-dichloro-1′-(2-hydroxyethanesulfonyl)-1H-spiro[indole-3,3′-pyrrolidin]-2-one]"
13,< 1 µM,"Nc1ccnc(N2CC[C@]3(C2)C(=O)Nc2cc(Cl)c(Cl)cc23)n1 [Compound 139, (S)-1′-(4-aminopyrimidin-2-yl)-5,6-dichlorospiro[indoline-3,3′-pyrrolidin]-2-one]"
14,< 1 µM,"Cc1cc(Cl)cc2c1NC(=O)[C@@]21CCN(C(=O)CO)C1 [Compound 140, (S)-5-chloro-1′-(2-hydroxyacetyl)-7-methylspiro[indoline-3,3′-pyrrolidin]-2-one]"
15,< 3 µM,"NS(=O)(=O)N1CC[C@]2(C1)C(=O)Nc1cc(Cl)c(Cl)cc12 [Compound 142, (S)-5,6-dichloro-2-oxospiro[indoline-3,3′-pyrrolidine]-1′-sulfonamide]"
16,< 1 µM,CS(=O)(=O)N1CC[C@]2(C1)C(=O)Nc1cc(Cl)c(Cl)cc12 [Compound 143]

# From patent publication US20240391926A1, “SPIROINDOLINONE COMPOUNDS AS Kv1.3 POTASSIUM SHAKER CHANNEL BLOCKERS” (D.E. Shaw Research, LLC, priority 2021, published 2024)
